Measurements: patent US5407918A, “16-membered macrolide derivatives and process for producing the same” (Meiji Seika Kaisha, Ltd., priority 1992, dated 1995)
In brackets after ≈: the same amount, converted by molar mass. Where two headings read alike, the source gives them in different places.

Experiments:
[1] = concentration in serum after oral administration to mice, bioassay; type: in vivo, mice (Jcl:ICR)
Experimental: The compound (3) was mixed with a 0.2% solution of carboxymethylcellulose to give a concentration of 4 mg/ml and a 1 ml portion of the resulting emulsion was orally administered to 4-week-old male Jcl:ICR mice. Blood was collected from armpit of the mice 30, 60, 120, 240 and 360 minutes after the administration of the test compound (n=2). The collected blood was allowed to stand at room temperature for about 2 hours and centrifuged for 20 minutes with a centrifuge (KUBOTA KS-5000P) to obtain serum. To the serum was added an equivalent volume of 50% CH3 CN-50 mM phosphate (1:1 by volume) buffer (pH 7.0). The resulting mixture served as a serum sample. The concentration of the test compound in the serum sample was measured by the following bioassay method.
One hundred […] of the serum sample was poured into a hole made on a test plate containing 40 ml of MRAPJ medium (6 g/l peptone, 3 g/l yeast extract, 1.5 g/l meat extract, 1 g/l glucose and 15 g/l agar, pH 6.5) supplemented with a solution of M. Iuteus ATCC9341 (1%) and incubated at 32° C. for 18 hours and MIC was measured based on the calibration curve. MOM, MDM and RKM were also tested for comparison. […] Thus a long-pending problem of "low concentration in serum" of 16-membered macrolide antibiotics has been solved. […] Thus this compound is considered as a macrolide derivative showing new pharmacokinetics.
Further, a pharmacokinetics test on the compound (12) of the present invention is carried out in the same manner as described above. Namely, 200 mg/kg of the compound (12) is orally administered to mice and the concentration of this compound in the serum is determined by a bioassay method with the use of M. luteus as a test strain. […] The disadvantage of 16-membered ring macrolide antibiotics, which has been pointed out for a long time, has been thus overcome.

test strains = test: antimicrobial activity in vitro, comparison in words; type: cell-based
Experimental: (§1) Antimicrobial activities of the compounds of the present invention were determined by measuring minimum inhibitory concentration (MIC). Minimum inhibitory concentration was determined by the agar plate dilution method in the following manner.
(§2) Test strains were subjected to seed culture using Sensitivity test broth (STB, Nissui Pharmaceutical) except that the strains belonging to the genus Streptococcus, Branhamella and Haemophilus were cultured on blood agar plate. A 5 μl portion of cell suspension of the test strains having about 10^6 CFU/ml was inoculated into Sensitivity disk agar (SDA, Nissui Pharmaceutical) supplemented with 5% horse blood and incubated at 37° C. for 20 hours. Then, MIC was measured. For comparison, MDM and leucomycin A7 (LM-A7) was also tested.

H. influenzae Type b = test: MIC, agar plate dilution method; type: cell-based; conditions: Haemophilus influenzae, read-out: Antimicrobial activity (MIC)
Experimental: as §1, §2

S. aureus MS15009/pMS99 = test: MIC, agar plate dilution method; type: cell-based; conditions: Staphylococcus aureus, MS15009/PMS99, 20 h, read-out: Antimicrobial activity (MIC)
Experimental: as §1, §2

S. aureus 209P JC-1 = test: MIC, agar plate dilution method; type: cell-based; conditions: Staphylococcus aureus; S. aureus 209P JC-1; 37° C., 20 hours; read-out: Antimicrobial activity (MIC)
Experimental: as §1, §2

S. pneumoniae IP692 = test: MIC, agar plate dilution method; type: cell-based; conditions: Streptococcus pneumoniae; S. pneumoniae IP692; 37° C., 20 hours; read-out: Antimicrobial activity (MIC)
Experimental: as §1, §2

E. faecalis W-73 = test: MIC, agar plate dilution method; type: cell-based; conditions: Enterococcus faecalis, W73; E. faecalis W-73; 37° C., 20 hours; read-out: Antimicrobial activity (MIC)
Experimental: as §1, §2

K. pneumoniae PC1602 = test: MIC, agar plate dilution method; type: cell-based; conditions: Klebsiella pneumoniae, 37° C., 20 hours, read-out: Antimicrobial activity (MIC)
Experimental: as §1, §2

S. aureus MS15009/pMS98 = test: MIC, agar plate dilution method; type: cell-based; conditions: Staphylococcus aureus, MS15009/PMS98, 20 h, read-out: Antimicrobial activity (MIC)
Experimental: as §1, §2

B. catarrhalis W-0506 = test: MIC, agar plate dilution method; type: cell-based; conditions: Moraxella catarrhalis, W0506, 37° C., 20 hours, read-out: Antimicrobial activity (MIC)
Experimental: as §1, §2

S. Pyogenes Cook = test: MIC, agar plate dilution method; type: cell-based; conditions: Streptococcus pyogenes, 37° C., 20 hours, read-out: Antimicrobial activity (MIC)
Experimental: as §1, §2

H. influenzae 9334 = test: MIC, agar plate dilution method; type: cell-based; conditions: Haemophilus influenzae; H. influenzae 9334; 37° C., 20 hours; read-out: Antimicrobial activity (MIC)
Experimental: as §1, §2

E. coli NIHJ JC-2 = test: MIC, agar plate dilution method; type: cell-based; conditions: Escherichia coli, NIHJJC2; E. coli NIHJ JC-2; 37° C., 20 hours; read-out: Antimicrobial activity (MIC)
Experimental: as §1, §2

S. aureus MS15026 = test: MIC, agar plate dilution method; type: cell-based; conditions: Staphylococcus aureus, 37° C., 20 hours, read-out: Antimicrobial activity (MIC)
Experimental: as §1, §2

S. aureus M133 = test: MIC, agar plate dilution method; type: cell-based; conditions: Staphylococcus aureus, 37° C., 20 hours, read-out: Antimicrobial activity (MIC)
Experimental: as §1, §2

M. luteus ATCC9341 = test: MIC, agar plate dilution method; type: cell-based; conditions: Micrococcus luteus; M. luteus ATCC9341; 37° C., 20 hours; read-out: Antimicrobial activity (MIC)
Experimental: as §1, §2

S. aureus M126 = test: MIC, agar plate dilution method; type: cell-based; conditions: Staphylococcus aureus; S. aureus M126; 37° C., 20 hours; read-out: Antimicrobial activity (MIC)
Experimental: as §1, §2

S. aureus MS15027 = test: MIC, agar plate dilution method; type: cell-based; conditions: Staphylococcus aureus, 37° C., 20 hours, read-out: Antimicrobial activity (MIC)
Experimental: as §1, §2

S. epidermidis ATCC14990 = test: MIC, agar plate dilution method; type: cell-based; conditions: Staphylococcus epidermidis, 37° C., 20 hours, read-out: Antimicrobial activity (MIC)
Experimental: as §1, §2

B. catarrhalis W-0500 = test: MIC, agar plate dilution method; type: cell-based; conditions: Moraxella catarrhalis, W0500, 37° C., 20 hours, read-out: Antimicrobial activity (MIC)
Experimental: as §1, §2

S. Pneumoniae Type 1 = test: MIC, agar plate dilution method; type: cell-based; conditions: Streptococcus pneumoniae; S. Pneumoniae Type 1; 37° C., 20 hours; read-out: Antimicrobial activity (MIC)
Experimental: as §1, §2

Gram-positive bacteria = test: antimicrobial activity in vitro (summary in words); type: cell-based; conditions: from Tables 2 and 3
Experimental: as §1, §2

For `CCC(=O)O[C@@H]1CC(=O)O[C@H](C)C/C=C/C=C/[C@H](OC(C)=O)[C@H](C)C[C@H](CC=O)[C@H](O[C@@H]2O[C@H](C)[C@@H](O[C@H]3C[C@@](C)(OC)[C@@H](OCCC(C)C)[C@H](C)O3)[C@H](N(C)C)[C@H]2O)[C@H]1OC` [(4)], the “concentration in the serum (in words)” value [1] was “sustains a high concentration in the serum”, the “maximum concentration in the serum compared with compound (3)” value [1] was “exceeds even that of the compound (3)” and the “concentration in the serum 6 hours after the administration, % of the maximum level” value ([1]; 6 hours) was “more than 80%”. For the same compound, the Tmax ([1]; mouse, serum, after the administration, read-out: time of maximum concentration in the serum) was about 2 h and the “antimicrobial activity compared with compound (3)” value (test strains; data are not shown) was “almost comparable to that of the compound (3)”.
With `CCCO[C@H]1[C@H](C)O[C@@H](O[C@H]2[C@H](N(C)C)[C@@H](O)[C@H](O[C@H]3[C@@H](CC=O)C[C@@H](C)[C@@H](O)/C=C/C=C/C[C@@H](C)OC(=O)C[C@@H](O)[C@@H]3OC)O[C@@H]2C)C[C@@]1(C)OC` [(9)] the MIC (H. influenzae Type b; 20 h) was 12.5 µg/mL (≈ 16.5 µM), the MIC (S. aureus MS15009/pMS99) was over 100 µg/mL and the MIC (S. aureus 209P JC-1) was 0.2 µg/mL (≈ 0.264 µM). For the same compound, the MIC (S. pneumoniae IP692) was 0.2 µg/mL (≈ 0.264 µM), the MIC (E. faecalis W-73) was 0.78 µg/mL (≈ 1.03 µM) and the MIC (K. pneumoniae PC1602) was over 100 µg/mL. The MIC (S. aureus MS15009/pMS98) was 0.39 µg/mL (≈ 0.515 µM), the MIC (B. catarrhalis W-0506) was 3.13 µg/mL (≈ 4.13 µM) and the MIC (S. Pyogenes Cook) was 0.1 µg/mL (≈ 0.132 µM). For the same compound, the MIC (H. influenzae 9334) was 6.25 µg/mL (≈ 8.25 µM), the MIC (E. coli NIHJ JC-2) was over 100 µg/mL and the MIC (S. aureus MS15026) was over 100 µg/mL. It also gave an MIC (S. aureus M133) of 0.39 µg/mL (≈ 0.515 µM), an MIC (M. luteus ATCC9341) of 0.05 µg/mL (≈ 0.066 µM) and an MIC (S. aureus M126) of over 100 µg/mL. For the same compound, the MIC (S. aureus MS15027) was 0.39 µg/mL (≈ 0.515 µM), the MIC (S. epidermidis ATCC14990) was 0.39 µg/mL (≈ 0.515 µM) and the MIC (B. catarrhalis W-0500) was 1.56 µg/mL (≈ 2.06 µM). The MIC (S. Pneumoniae Type 1) was 0.2 µg/mL (≈ 0.264 µM) and the “antimicrobial activity on Gram-positive bacteria” value (Gram-positive bacteria) was “strong antimicrobial activity”.
Work on `CCCCO[C@H]1[C@H](C)O[C@@H](O[C@H]2[C@H](N(C)C)[C@@H](O)[C@H](O[C@H]3[C@@H](CC=O)C[C@@H](C)[C@@H](O)/C=C/C=C/C[C@@H](C)OC(=O)C[C@@H](O)[C@@H]3OC)O[C@@H]2C)C[C@@]1(C)OC` [(10)] yielded an MIC (H. influenzae Type b; H. influenzae Type b, 37° C., 20 hours) of 12.5 µg/mL (≈ 16.2 µM), an MIC (S. aureus MS15009/pMS99) of over 100 µg/mL and an MIC (S. aureus 209P JC-1) of 0.1 µg/mL (≈ 0.13 µM). It also gave an MIC (S. pneumoniae IP692) of 0.1 µg/mL (≈ 0.13 µM), an MIC (E. faecalis W-73) of 0.78 µg/mL (≈ 1.01 µM) and an MIC (K. pneumoniae PC1602) of over 100 µg/mL. For the same compound, the MIC (S. aureus MS15009/pMS98) was 0.39 µg/mL (≈ 0.505 µM), the MIC (B. catarrhalis W-0506) was 1.56 µg/mL (≈ 2.02 µM) and the MIC (S. Pyogenes Cook) was 0.1 µg/mL (≈ 0.13 µM). The MIC (H. influenzae 9334) was 3.13 µg/mL (≈ 4.05 µM), the MIC (E. coli NIHJ JC-2) was over 100 µg/mL and the MIC (S. aureus MS15026) was over 100 µg/mL. For the same compound, the MIC (S. aureus M133) was 0.39 µg/mL (≈ 0.505 µM), the MIC (M. luteus ATCC9341) was 0.05 µg/mL (≈ 0.0648 µM) and the MIC (S. aureus M126) was over 100 µg/mL. For the same compound, the MIC (S. aureus MS15027) was 0.39 µg/mL (≈ 0.505 µM), the MIC (S. epidermidis ATCC14990) was 0.39 µg/mL (≈ 0.505 µM) and the MIC (B. catarrhalis W-0500) was 0.78 µg/mL (≈ 1.01 µM). The MIC (S. Pneumoniae Type 1) was 0.2 µg/mL (≈ 0.259 µM), the “antimicrobial activity on Gram-positive bacteria” value (Gram-positive bacteria) was “strong antimicrobial activity” and the “antimicrobial activity in vitro compared with MOM” value (test strains; data are not shown) was “clearly much superior to MOM”. The “antimicrobial activity compared with LM-A7” value (test strains; except on Haemophilus influenzae, Tables 2 and 3) was “comparable or superior”.
